The source of these data is ChEMBL document CHEMBL1145057, “Water soluble, core-modified porphyrins. 3. Synthesis, photophysical properties, and in vitro studies of photosensitization, uptake, and localization with carboxylic acid-substituted derivatives” (J Med Chem, 2003).

Each structure is given as a SMILES string. A value given as a limit tells only on which side of the number the result lay.

This series can be described thus: Partition coefficient (logP). The settings on record: octanol/water. Type of series: physicochemical.

Consider `O=C(O)COc1ccc(-c2c3nc(c(-c4ccc(OCC(=O)O)cc4)c4ccc(s4)c(-c4ccc(OCC(=O)O)cc4)c4nc(c(-c5ccccc5)c5ccc2s5)C=C4)C=C3)cc1`, for which the logP is -1.49.
For `O=S(=O)(O)c1ccc(-c2c3nc(c(-c4ccc(F)cc4)c4ccc(s4)c(-c4ccc(F)cc4)c4nc(c(-c5ccc(S(=O)(=O)O)cc5)c5ccc2s5)C=C4)C=C3)cc1`, the logP was -1.9.
Take `O=C(O)COc1ccc(-c2c3nc(c(-c4ccc(OCC(=O)O)cc4)c4ccc(s4)c(-c4ccc(OCC(=O)O)cc4)c4nc(c(-c5ccc(OCC(=O)O)cc5)c5ccc2s5)C=C4)C=C3)cc1`: the logP was -0.95.
The same measure for `O=C(O)COc1ccc(-c2c3nc(c(-c4ccccc4)c4ccc(s4)c(-c4ccccc4)c4nc(c(-c5ccccc5)c5ccc2s5)C=C4)C=C3)cc1`: over 3.5; for `O=C(O)COc1ccc(-c2c3nc(c(-c4ccccc4)c4ccc(s4)c(-c4ccccc4)c4nc(c(-c5ccc(OCC(=O)O)cc5)c5ccc2[se]5)C=C4)C=C3)cc1`: -0.67; for `O=C(O)COc1ccc(-c2c3nc(c(-c4ccccc4)c4ccc(s4)c(-c4ccccc4)c4nc(c(-c5ccc(OCC(=O)O)cc5)c5ccc2s5)C=C4)C=C3)cc1`: 0.036.
